This passage reports Activity results from ChEMBL document CHEMBL1133347, “Synthesis of NF-kappaB activation inhibitors derived from epoxyquinomicin C” (Bioorg Med Chem Lett, 2000).

Experiment [1] deals with Jurkat. Nature of the experiment: Compound was assessed for NF-kB activity using human T cell leukemia Jurkat cells; more toxic. Format: functional, cell-based.
In experiment [2] the test system is Jurkat. Nature of the experiment: Compound was assessed for NF-kB activity using human T cell leukemia Jurkat cells; Less toxic. The format is functional, cell-based.
The species named for experiment [3] is Mus musculus. Put plainly: Compound was tested for antiarthritic effects on type-II collagen induced arthritis in DBA1/J mice; inhibited. The format is functional, organism-based.

For the compound `O=C(NC1=CC(O)C2OC2C1=O)c1ccccc1O` (stereo not drawn), the Activity entry in experiment [1] is “Toxic”.

For `O=C(NC1=CC(=O)[C@H]2O[C@H]2[C@H]1O)c1ccccc1O`, the values for the Activity entry in experiment [2] and in experiment [3] were “Toxic” and “Inhibited”, respectively.
